Results from patent US10294202B2, “Pyrrolidinones as herbicides” (FMC Corporation, priority 2013, dated 2019).

Assays:
ragweed = experiment: Test A pre-/postemergence herbicide test; format: in vivo, Ambrosia elatior
In short: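 Planted in loam–sand blend; treated the same day preemergence by directed soil spray, while separately grown plants at one- to two-leaf stage got postemergence spray. Compared visually with untreated controls after approximately 10 days; 100 means complete control.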

wheat (winter wheat) = experiment: Test C pre-/postemergence herbicide test; format: in vivo, Triticum aestivum
In short: (§1)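 Test compounds, formulated in a surfactant-containing non-phytotoxic solvent blend, are applied to seeded loam/sand soil (preemergence) and to young plants at the 1- to 4-leaf stage in peat-based medium (postemergence). Plants stay 13 to 15 days under greenhouse conditions, then are scored visually relative to controls, 0 = no effect, 100 = complete control.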

crabgrass, large = experiment: Test C pre-/postemergence herbicide test; format: in vivo, Digitaria sanguinalis
In short: as §1

lambsquarters = experiment: Test C pre-/postemergence herbicide test; format: in vivo, Chenopodium album
In short: as §1

pigweed = experiment: Test C pre-/postemergence herbicide test; format: in vivo, Amaranthus retroflexus
In short: as §1

velvetleaf = experiment: Test C pre-/postemergence herbicide test; format: in vivo, Abutilon theophrasti
In short: as §1

chickweed = experiment: Test C postemergence herbicide test; format: in vivo, Stellaria media
In short: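 Response is scored visually on a 0–100 scale (100 = complete control) relative to untreated controls, 13 to 15 days after treatment. Plants were sprayed postemergence at the 1- to 4-leaf stage (2 to 18 cm tall) and kept in a greenhouse.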

rice = experiment: Test C flooded paddy test; format: in vivo, Oryza sativa; conditions: Flood
In short: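 Visual ratings from 0, no effect, to 100, complete control, were made against untreated controls after 13–15 greenhouse days. Compounds had gone straight into paddy water 3 cm above the soil, kept at that depth, on 2-leaf-stage plants.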

[1] = Postemergence, 31 g ai/ha, scale 0 to 100 (0 no effect, 100 complete control)
[2] = Postemergence, 62 g ai/ha, scale 0 (no effect) to 100 (complete control)
[3] = Postemergence, 125 g ai/ha, scale 0 to 100 (0 no effect, 100 complete control)
[4] = Postemergence, 250 g ai/ha, scale 0 to 100 (0 no effect, 100 complete control)
[5] = Preemergence, 31 g ai/ha, scale 0 to 100, 0 is no effect and 100 is complete control
[6] = Preemergence, 62 g ai/ha, scale 0 to 100 (0 no effect, 100 complete control)
[7] = Preemergence, 125 g ai/ha, scale 0 to 100 (0 no effect, 100 complete control)
[8] = 31 g ai/ha, scale 0 to 100 (0 no effect, 100 complete control)
[9] = 62 g ai/ha, scale 0 (no effect) to 100 (complete control)
[10] = 125 g ai/ha, scale 0 to 100 (0 no effect, 100 complete control)
[11] = 250 g ai/ha, scale 0 to 100 (0 no effect, 100 complete control)
[12] = 125 g ai/ha, scale of 0 to 100 where 0 is no effect and 100 is complete control, 13 to 15 days
[13] = 250 g ai/ha, scale of 0 to 100 where 0 is no effect and 100 is complete control, 13 to 15 days
[14] = Preemergence, 125 g ai/ha, scale 0 to 100
[15] = Preemergence, 31 g ai/ha, scale 0 to 100

O=C1NCC(c2cccc(OC(F)F)c2)C1C(=O)Nc1cccc(F)c1F (stereo not shown) [Compound 224]
Plant response rating, Ragweed (ragweed; 125 g ai/ha, visual rating, 0 to 100 scale, 0 no effect, 100 complete control, approximately 10 days, preemergence): 90 | Plant response rating, Ragweed (ragweed; Postemergence, 125 g ai/ha, 0 to 100 scale, 0 is no effect, 100 is complete control): 40 | Ragweed plant response rating (0 to 100 scale, 0 is no effect, 100 is complete control) (ragweed; Postemergence, 500 g ai/ha): 60 | Plant response rating, Ragweed (ragweed; preemergence, 500 g ai/ha, 0 to 100 scale, 0 is no effect and 100 is complete control): 90 | Plant response rating, Wheat (wheat (winter wheat); [1]): 0 | Plant response rating, Wheat (wheat (winter wheat); [2]): 0 | Plant response rating, Wheat (wheat (winter wheat); [3]): 5 | Plant response rating, Wheat (wheat (winter wheat); [4]): 5 | Wheat plant response rating (wheat (winter wheat); [5]): 0 | Wheat plant response rating (wheat (winter wheat); [6]): 0 | Plant response rating, Wheat (wheat (winter wheat); [7]): 0 | Plant response rating (scale of 0 to 100), Wheat (wheat (winter wheat); Preemergence, 250 g ai/ha): 45 | Plant response rating, Crabgrass, Large (crabgrass, large; [1]): 0 | Plant response rating, Crabgrass, Large (crabgrass, large; [2]): 35 | Plant response rating, Crabgrass, Large (crabgrass, large; [3]): 55 | Plant response rating, Crabgrass, Large (crabgrass, large; [4]): 75 | Crabgrass, Large plant response rating (crabgrass, large; [5]): 90 | Crabgrass, Large plant response rating (crabgrass, large; [6]): 90 | Plant response rating, Crabgrass, Large (crabgrass, large; [7]): 90 | Plant response rating (scale of 0 to 100), Crabgrass, Large (crabgrass, large; Preemergence, 250 g ai/ha): 100 | Plant response rating, Lambsquarters (lambsquarters; [1]): 5 | Plant response rating, Lambsquarters (lambsquarters; [2]): 50 | Plant response rating, Lambsquarters (lambsquarters; [3]): 70 | Plant response rating, Lambsquarters (lambsquarters; [4]): 60 | Lambsquarters plant response rating (lambsquarters; [5]): 55 | Lambsquarters plant response rating (lambsquarters; [6]): 65 | Plant response rating, Lambsquarters (lambsquarters; [7]): 95 | Plant response rating (scale of 0 to 100), Lambsquarters (lambsquarters; Preemergence, 250 g ai/ha): 95 | Plant response rating, Pigweed (pigweed; [1]): 40 | Plant response rating, Pigweed (pigweed; [2]): 55 | Plant response rating, Pigweed (pigweed; [3]): 60 | Plant response rating, Pigweed (pigweed; [4]): 65 | Pigweed plant response rating (pigweed; [5]): 0 | Pigweed plant response rating (pigweed; [6]): 25 | Plant response rating, Pigweed (pigweed; [7]): 60 | Plant response rating (scale of 0 to 100), Pigweed (pigweed; Preemergence, 250 g ai/ha): 85 | Plant response rating, Velvetleaf (velvetleaf; [1]): 0 | Plant response rating, Velvetleaf (velvetleaf; [2]): 0 | Plant response rating, Velvetleaf (velvetleaf; [3]): 25 | Plant response rating, Velvetleaf (velvetleaf; [4]): 35 | Velvetleaf plant response rating (velvetleaf; [5]): 0 | Velvetleaf plant response rating (velvetleaf; [6]): 5 | Plant response rating, Velvetleaf (velvetleaf; [7]): 45 | Plant response rating (scale of 0 to 100), Velvetleaf (velvetleaf; Preemergence, 250 g ai/ha): 40 | Plant response rating, Chickweed (chickweed; [8]): 70 | Plant response rating, Chickweed (chickweed; [9]): 70 | Plant response rating, Chickweed (chickweed; [10]): 70 | Plant response rating, Chickweed (chickweed; [11]): 85 | Plant response rating, Rice (rice; 31 g ai/ha, scale of 0 to 100 where 0 is no effect and 100 is complete control, 13 to 15 days): 0 | Plant response rating, Rice (rice; 62 g ai/ha, scale of 0 to 100 where 0 is no effect and 100 is complete control, 13 to 15 days): 0 | Plant response rating, Rice (rice; [12]): 0 | Plant response rating, Rice (rice; [13]): 20

O=C1NCC(c2ccc(F)c(F)c2)C1C(=O)Nc1ccc(F)c(F)c1F (stereo not shown) [Compound 346]
Plant response rating, Ragweed (ragweed; Postemergence, 125 g ai/ha, visual rating on 0 to 100 scale (0 no effect, 100 complete control), approx. 10 days): 0 | Plant response rating, Ragweed (ragweed; Preemergence, 125 g ai/ha, 0 to 100 scale where 0 is no effect and 100 is complete control): 0 | Ragweed plant response rating (ragweed; Preemergence, 500 g ai/ha, visual rating on 0 to 100 scale (0 no effect, 100 complete control)): 0 | Plant response rating, Wheat (wheat (winter wheat); [1]): 0 | Plant response rating, Wheat (wheat (winter wheat); [2]): 0 | Plant response rating, Wheat (wheat (winter wheat); [3]): 0 | Plant response rating, Wheat (wheat (winter wheat); [4]): 0 | Wheat plant response rating (wheat (winter wheat); [6]): 0 | Plant response rating, Wheat (wheat (winter wheat); [14]): 0 | Plant response rating, Wheat (wheat (winter wheat); [15]): 0 | Plant response rating, Crabgrass, Large (crabgrass, large; [1]): 0 | Plant response rating, Crabgrass, Large (crabgrass, large; [2]): 25 | Plant response rating, Crabgrass, Large (crabgrass, large; [3]): 60 | Plant response rating, Crabgrass, Large (crabgrass, large; [4]): 75 | Crabgrass, Large plant response rating (crabgrass, large; [6]): 95 | Plant response rating, Crabgrass, Large (crabgrass, large; [14]): 98 | Plant response rating (scale of 0 to 100), Crabgrass, Large (crabgrass, large; Preemergence, 250 g ai/ha): 100 | Plant response rating, Crabgrass, Large (crabgrass, large; [15]): 95 | Plant response rating, Lambsquarters (lambsquarters; [1]): 45 | Plant response rating, Lambsquarters (lambsquarters; [2]): 5 | Plant response rating, Lambsquarters (lambsquarters; [3]): 5 | Plant response rating, Lambsquarters (lambsquarters; [4]): 65 | Lambsquarters plant response rating (lambsquarters; [6]): 35 | Plant response rating, Lambsquarters (lambsquarters; [14]): 100 | Plant response rating (scale of 0 to 100), Lambsquarters (lambsquarters; Preemergence, 250 g ai/ha): 100 | Plant response rating, Lambsquarters (lambsquarters; [15]): 35 | Plant response rating, Pigweed (pigweed; [1]): 5 | Plant response rating, Pigweed (pigweed; [2]): 5 | Plant response rating, Pigweed (pigweed; [3]): 20 | Plant response rating, Pigweed (pigweed; [4]): 40 | Pigweed plant response rating (pigweed; [6]): 55 | Plant response rating, Pigweed (pigweed; [14]): 60 | Plant response rating, Pigweed (pigweed; [15]): 40 | Plant response rating, Velvetleaf (velvetleaf; [1]): 0 | Plant response rating, Velvetleaf (velvetleaf; [2]): 0 | Plant response rating, Velvetleaf (velvetleaf; [3]): 5 | Plant response rating, Velvetleaf (velvetleaf; [4]): 20 | Velvetleaf plant response rating (velvetleaf; [6]): 0 | Plant response rating, Velvetleaf (velvetleaf; [14]): 10 | Plant response rating, Velvetleaf (velvetleaf; [15]): 0 | Plant response rating, Chickweed (chickweed; [8]): 40 | Plant response rating, Chickweed (chickweed; [9]): 65 | Plant response rating, Chickweed (chickweed; [10]): 40 | Plant response rating, Chickweed (chickweed; [11]): 85 | Plant response rating, Rice (rice; [12]): 0 | Plant response rating, Rice (rice; [13]): 0 | Plant response rating, Rice (rice; 500 g ai/ha, scale 0 to 100): 0 | Plant response rating, Rice (rice; 1000 g ai/ha, scale 0 to 100): 0
